Reference: patent US8574563B2 (Bristol-Myers Squibb Company, priority 2006, dated 2013)

System: HCV 1b-377-neo replicon cells
Assay: HCV replicon assay, HCV 1b-377-neo replicon cells (1b FRET)
Type: cell-based, Hepatitis C virus genotype 1b
Conditions: HCV 1b-377-neo replicon cells, HCV 1b genotype; for EC50: Hepatitis C virus, read-out: EC50 range against HCV 1b (Table 2, Range)
In short: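 Compounds were tested in genotype 1b subgenomic replicon cells carrying a neomycin marker, alongside a matched replicon line with an NS5A Y2065H substitution that confers resistance to a reference NS5A inhibitor.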

COC(=O)NC(C)(C)C(=O)N1CCC[C@H]1c1ncc(-c2ccc(-c3ccc(-c4cnc([C@@H]5CCCN5C(=O)C(C)(C)NC(=O)OC)[nH]4)cc3)cc2)[nH]1 [Example M7, methyl (2-((2S)-2-(5-(4′-(2-((2S)-1-(2-((methoxycarbonyl)amino)-2-methylpropanoyl)-2-pyrrolidinyl)-1H-imidazol-5-yl)-4-biphenylyl)-1H-imidazol-2-yl)-1-pyrrolidinyl)-1,1-dimethyl-2-oxoethyl)carbamate]
EC50 range against HCV 1b (Table 2, Range): >A

COC(=O)N[C@H](C(=O)N1CCC[C@H]1c1nc(-c2ccc(-c3ccc(-c4c[nH]c([C@@H]5CCCN5C(=O)[C@@H](C)NC5CCOCC5)n4)cc3)cc2)c[nH]1)C(C)C [Example F53, methyl ((1S)-2-methyl-1-(((2S)-2-(4-(4′-(2-((2S)-1-(N-(tetrahydro-2H-pyran-4-yl)-D-alanyl)-2-pyrrolidinyl)-1H-imidazol-4-yl)-4-biphenylyl)-1H-imidazol-2-yl)-1-pyrrolidinyl)carbonyl)propyl)carbamate]
EC50: 0.001 to 0.999 nM

O=C1N[C@H](C(=O)N2CCC[C@H]2c2ncc(-c3ccc(-c4ccc(-c5cnc([C@@H]6CCCN6C(=O)[C@@H]6CCOC(=O)N6)[nH]5)cc4)cc3)[nH]2)CCO1 [LS11, (4S,4′S)-4,4′-(4,4′-biphenyldiylbis(1H-imidazole-5,2-diyl(2S)-2,1-pyrrolidinediylcarbonyl))bis(1,3-oxazinan-2-one)]
EC50: 1000 to 10000 nM

CN(C)[C@@H](C(=O)N1CCC[C@H]1c1ncc(-c2ccc(-c3ccc(-c4cnc([C@@H]5CCCN5C(=O)C5CN(C(=O)OC(C)(C)C)C5)[nH]4)cc3)cc2)[nH]1)c1ccccc1 [Example 94-25, tert-butyl 3-(((2S)-2-(5-(4′-(2-((2S)-1-((2R)-2-(dimethylamino)-2-phenylacetyl)-2-pyrrolidinyl)-1H-imidazol-5-yl)-4-biphenylyl)-1H-imidazol-2-yl)-1-pyrrolidinyl)carbonyl)-1-azetidinecarboxylate]
EC50: 0.001 to 0.999 nM

COC(=O)N[C@@H](C(=O)N1CCC[C@H]1c1ncc(-c2ccc(-c3ccc(-c4cnc([C@@H]5CCCN5C(=O)C(c5cnc6ccccc6c5)N(C)C)[nH]4)cc3)cc2)[nH]1)c1ccccc1 (stereo partly drawn) [Example 84-52, methyl ((1R)-2-((2S)-2-(5-(4′-(2-((2S)-1-((dimethylamino)(3-quinolinyl)acetyl)-2-pyrrolidinyl)-1H-imidazol-5-yl)-4-biphenylyl)-1H-imidazol-2-yl)-1-pyrrolidinyl)-2-oxo-1-phenylethyl)carbamate]
EC50: 0.001 to 0.999 nM

COC(=O)N[C@@H](C(=O)N1CCC[C@H]1c1ncc(-c2ccc(-c3ccc(-c4cnc([C@@H]5CCCN5C(=O)[C@H](NC(=O)OC)c5ccccc5)[nH]4)nn3)nn2)[nH]1)c1ccccc1 [Example 153c-2, dimethyl (3,3′-bipyridazine-6,6′-diylbis(1H-imidazole-5,2-diyl(2S)-2,1-pyrrolidinediyl((1R)-2-oxo-1-phenyl-2,1-ethanediyl)))biscarbamate]
EC50: 1 to 99 nM

COC[C@H](NC(=O)OC)C(=O)N1CCC[C@H]1c1ncc(-c2ccc(-c3ccc(-c4cnc([C@@H]5CCCN5C(=O)[C@H](C)NC(=O)OC)[nH]4)cc3)cc2)[nH]1 [Example M100, methyl ((1S)-2-((2S)-2-(5-(4′-(2-((2S)-1-(N-(methoxycarbonyl)-L-alanyl)-2-pyrrolidinyl)-1H-imidazol-5-yl)-4-biphenylyl)-1H-imidazol-2-yl)-1-pyrrolidinyl)-1-(methoxymethyl)-2-oxoethyl)carbamate]
EC50: 1 to 99 nM

CCN(CC)[C@@H](C(=O)N1CCC[C@H]1c1ncc(-c2ccc(-c3ccc(-c4cnc([C@@H]5CCCN5C(=O)[C@H](COC)NC(=O)OC)[nH]4)cc3)cc2)[nH]1)c1ccccc1 [Example M61, methyl ((1S)-2-((2S)-2-(5-(4′-(2-((2S)-1-((2R)-2-(diethylamino)-2-phenylacetyl)-2-pyrrolidinyl)-1H-imidazol-5-yl)-4-biphenylyl)-1H-imidazol-2-yl)-1-pyrrolidinyl)-1-(methoxymethyl)-2-oxoethyl)carbamate]
EC50: 1 to 99 nM
